Reference: publication PMC12040169 (PLOS Biology, 2025)

Test: in vitro
Settings: human, hela cells, % viability
In the case of `O=C(Nc1nc2ccccc2[nH]1)c1ccc(N2CCCS2(=O)=O)cc1` [CBK304582], the viability at 28.5 h, 10 µM is reported as 98.6%. `CC(=O)Nc1cccc(C(=O)NCC(c2cccs2)N(C)C)c1` (stereo not shown) [CBK304583] showed a viability at 28.5 h, 10 µM of 86.7%. With `O=C(Nc1nc2ccccc2[nH]1)c1cccc(N2CCCS2(=O)=O)c1` [CBK304584] the viability at 28.5 h, 10 µM was 100%. For `COc1ccccc1CN(C)C(=O)CCc1ccc(S(N)(=O)=O)cc1` [CBK304585], the viability at 28.5 h, 10 µM was 86.8%. Work on `COc1ccccc1C(CNC(=O)Nc1cc(C)on1)N1CCCC1` (stereo not shown) [CBK304586] yielded a viability at 28.5 h, 10 µM of 94.5%. Compound `CCCS(=O)(=O)NC1CCN(c2nc(C(F)(F)F)nc3[nH]cnc23)CC1` [CBK304587] has a viability at 28.5 h, 10 µM of 105%. `CCS(=O)(=O)NC1CCN(c2nc(C(F)(F)F)nc3[nH]cnc23)CC1` [CBK304588] showed a viability at 28.5 h, 10 µM of 86.8%. Compound `CC(=O)Nc1cccc(-n2c(C)nnc2SCC2CCCCC2)c1` [CBK304590] has a viability at 28.5 h, 10 µM of 86.3%. `CCCS(=O)(=O)NC1CCN(c2nc(C(F)(F)F)nc3ccsc23)CC1` [CBK304591] gave a viability at 28.5 h, 10 µM of 87%. `CS(=O)(=O)N1CCc2cc(-c3csc(N)n3)ccc21` [CBK304596] showed a viability at 28.5 h, 10 µM of 102%. `CN(Cc1ccc(F)cc1F)C(=O)Cn1nc2n(c1=O)CCCCC2` [CBK304598] showed a viability at 28.5 h, 10 µM of 86.3%. Work on `CC(=O)Nc1cccc(-n2nnnc2SC2CCCCC2=O)c1` (stereo not shown) [CBK304600] yielded a viability at 28.5 h, 10 µM of 95.4%. Compound `COc1ccc(CNC(=O)c2cc(S(=O)(=O)N3CCCC3)c[nH]2)cc1` [CBK304601] has a viability at 28.5 h, 10 µM of 102%. With `CC(C)n1nnnc1SCCC(=O)N1CCN(c2ccc(F)cc2)CC1` [CBK304602] the viability at 28.5 h, 10 µM was 95.5%. For `COC1(CNC(=O)c2cc3ccccc3[nH]2)CCSC1` (stereo not shown) [CBK304605], the viability at 28.5 h, 10 µM was 97.9%. For `Cn1ccnc1C1CCN(C(=O)NCc2cccc(F)c2)CC1` [CBK304606], the viability at 28.5 h, 10 µM was 91.3%. For `COc1ccnc(N2CCN(C(=O)c3c4c(nn3C)CCCC4)CC2)n1` [CBK304609], the viability at 28.5 h, 10 µM was 118%. Compound `CCn1cc(Cl)c(C(=O)NC2CCN(c3nc(C)cc(=O)[nH]3)CC2)n1` [CBK304614] has a viability at 28.5 h, 10 µM of 88.5%. Work on `Cc1cc(C(F)(F)F)nn1CC(=O)Nc1sc2c(c1C#N)CCC(C)C2` (stereo not shown) [CBK304619] yielded a viability at 28.5 h, 10 µM of 92.1%. For `CCCOC1CCCN(C(=O)c2cncc(F)c2)C1` (stereo not shown) [CBK304623], the viability at 28.5 h, 10 µM was 95%. With `COCC1CCCN(Cc2ccc(Br)cc2)C1` (stereo not shown) [CBK304624] the viability at 28.5 h, 10 µM was 108%. `COCCOc1ccc(C(=O)N2CCN(c3ccccc3)CC2)cc1` [CBK304626] gave a viability at 28.5 h, 10 µM of 106%. With `O=C(NCCN1CCOCC1)C1CCN(C(=O)c2cccc(F)c2)CC1` [CBK304627] the viability at 28.5 h, 10 µM was 85.8%. Compound `COc1cccc(OCC(=O)NCC(c2ccsc2)N2CCCC2)c1` (stereo not shown) [CBK304630] has a viability at 28.5 h, 10 µM of 89.6%. In the case of `COCCN1CCC(CNC(=O)Nc2cc(C)ccc2F)C1` (stereo not shown) [CBK304631], the viability at 28.5 h, 10 µM is reported as 117%. With `O=C(NCCOc1ccccc1F)C1CC(=O)N(Cc2ccccn2)C1` (stereo not shown) [CBK304632] the viability at 28.5 h, 10 µM was 104%. With `O=C(NCC1CCCO1)C1CCN(C(=O)c2cccc(F)c2)CC1` (stereo not shown) [CBK304633] the viability at 28.5 h, 10 µM was 90.5%. In the case of `CCCn1cc(C(=O)NCC2CCN(c3ccccc3F)C2)c(C)n1` (stereo not shown) [CBK304634], the viability at 28.5 h, 10 µM is reported as 79%. Work on `Cn1cc(CCC(=O)N2CCc3[nH]c4ccc(Cl)cc4c3C2)cn1` [CBK304636] yielded a viability at 28.5 h, 10 µM of 82%. In the case of `O=C(CCCn1cccn1)N1CCOC(c2ccc(Cl)c(Cl)c2)C1` (stereo not shown) [CBK304640], the viability at 28.5 h, 10 µM is reported as 98.5%. `O=C(CCCn1cccn1)N1CCCN(Cc2ccc(F)cc2)CC1` [CBK304641] gave a viability at 28.5 h, 10 µM of 99.7%. Work on `O=C(NC1CCS(=O)(=O)C1)c1cnc2c(Cl)cccc2c1O` (stereo not shown) [CBK304644] yielded a viability at 28.5 h, 10 µM of 87.4%. With `O=C(Nc1sc2c(c1C(=O)N1CCOCC1)CCCC2)c1cccs1` [CBK304649] the viability at 28.5 h, 10 µM was 92.9%. Work on `Cc1ccc(Cl)c(OC(C)C(=O)N2CCN(c3ccccn3)CC2)c1` (stereo not shown) [CBK304650] yielded a viability at 28.5 h, 10 µM of 90.4%. `O=C(Cn1cnc2c(c1=O)CCCC2)Nc1ccc(Cl)c(Cl)c1` [CBK304655] gave a viability at 28.5 h, 10 µM of 102%. For `CC(CNS(=O)(=O)c1ccc(N2CCCC2=O)cc1)Cn1cccn1` (stereo not shown) [CBK304656], the viability at 28.5 h, 10 µM was 87.7%. Work on `CC(=O)Nc1ccc(F)c(NC(=O)NCCC2CCCN2C)c1` (stereo not shown) [CBK304661] yielded a viability at 28.5 h, 10 µM of 101%. Work on `CCCCC(=O)Nc1ccc(C(=O)N2CCN(C)CC2)cc1` [CBK304662] yielded a viability at 28.5 h, 10 µM of 105%. For `COc1cccc(C(=O)NCCC(=O)N2CCN(C)CC2)c1` [CBK304663], the viability at 28.5 h, 10 µM was 95.4%. For `CCOC(=O)c1cc(S(=O)(=O)NC2CCN(C(=O)OCC)CC2)cn1C` [CBK304665], the viability at 28.5 h, 10 µM was 90.1%. With `CCOC(=O)N1CCC(NS(=O)(=O)c2ccc3c(c2)oc(=O)n3C)CC1` [CBK304666] the viability at 28.5 h, 10 µM was 84.5%. Compound `CCOC(=O)N1CCN(S(=O)(=O)c2ccc3c(c2)oc(=O)n3C)CC1` [CBK304667] has a viability at 28.5 h, 10 µM of 105%. Work on `Cc1nc(S(=O)(=O)N2CCC(OCC3CC3)C2)cn1C` (stereo not shown) [CBK304668] yielded a viability at 28.5 h, 10 µM of 102%. For `CC1=CCN(C(=O)c2cccc(S(=O)(=O)NCC3CCCO3)c2)CC1` (stereo not shown) [CBK304669], the viability at 28.5 h, 10 µM was 95.5%. In the case of `CCC(CO)NCc1ccc(OCC(N)=O)cc1` (stereo not shown) [CBK304670], the viability at 28.5 h, 10 µM is reported as 100%. `Cc1ncsc1CCC(=O)NCC1CCN(c2ccccc2F)C1` (stereo not shown) [CBK304675] showed a viability at 28.5 h, 10 µM of 96.5%.
